Columns and labels:
[1] = Fermentation of second milk substrate (milk replacer for calves), pH monitoring; details: incubated at 30° C.
Protocol: (§1) Lactic acid producing bacteria listed in Table 1 were tested for their ability to ferment two milk substrates according to the following procedures:
(§2) A commercially available dried skimmed milk powder was prepared according to the manufacturer's instructions to provide a first milk substrate. A milk replacer for calves (70 g) was mixed with water (100 g) to provide a second milk substrate. Both substrates were placed in a steamer for 30 minutes/day for each of 3 days for sterilisation.
(§3) Each lactic acid producing bacteria was grown in MRS broth (ex Oxoid) for 24 hours at 37° C.
(§4) 100 ml of each milk substrate was inoculated with 100 μl of the culture of each lactic acid producing bacteria. The samples were incubated at 30° C. for 48 hours. The ability of the bacteria to ferment the milk substrate was determined by monitoring the pH at intervals during the incubation of 0, 8, 24, 32 and 48 hours, with a reduction in the pH indicating the production of lactic acid. The results for the first and second milk substrates are set out in Tables 3 and 4 respectively.

[2] = Fermentation of first milk substrate (dried skimmed milk powder), pH monitoring; details: incubated at 30° C.
Protocol: as §1, §2, §3, §4

Substance | pH ([1]; 0 h) | pH ([1]; 8 h) | pH ([1]; 24 h) | pH ([1]; 32 h) | pH ([1]; 48 h) | pH ([2]; 0 h) | pH ([2]; 8 h) | pH ([2]; 24 h) | pH ([2]; 32 h) | pH ([2]; 48 h)
Lactobacillus plantarum [NCIMB 41608] | 6.12 | 6.44 | 6.50 | 6.25 | 5.71 | 6.69 | 6.65 | 5.85 | 4.96 | 4.45
Lactobacillus salivarius ss. Salivarius [NCIMB 41606] | 5.82 | 6.03 | 6.01 | 5.92 | 5.37 | 6.69 | 6.61 | 5.55 | 4.76 | 4.35
Lactobacillus plantarum [NCIMB 41607] | 5.54 | 5.69 | 5.75 | 5.61 | 4.80 | 6.69 | 6.62 | 5.83 | 5.08 | 4.53
Lactobacillus salivarius ss. Salivarius [NCIMB 41610] | 5.55 | 5.67 | 5.72 | 5.54 | 4.76 | 6.69 | 6.68 | 5.69 | 4.96 | 4.46
Lactobacillus salivarius ss. Salivarius [NCIMB 41609] | 5.55 | 5.69 | 5.70 | 5.58 | 4.93 | 6.69 | 6.62 | 5.72 | 4.98 | 4.56
Lactobacillus plantarum [NCIMB 41605] | 6.13 | 6.46 | 6.51 | 5.90 | 5.72 | 6.69 | 6.65 | 6.09 | 5.22 | 4.60

Reference: US20130259844A1, “Fermented Foodstuff” (University of Plymouth, priority 2010, published 2013)
